Where two headings read alike, the source gives them in different places.
Tests used:
M1 muscarinic receptor = molecular target: T1, M1 muscarinic receptor (Homo sapiens, UniProt P11229); test: Functional mobilization of intracellular calcium (FLIPR) in M1-CHO cells; assay type: cell-based; details: for M1 Activity: modulating M1 receptor
T1 construct: expressed in transfected cells; host or cells: CHO (M1-CHO)
T1 sequence (P11229 1-460): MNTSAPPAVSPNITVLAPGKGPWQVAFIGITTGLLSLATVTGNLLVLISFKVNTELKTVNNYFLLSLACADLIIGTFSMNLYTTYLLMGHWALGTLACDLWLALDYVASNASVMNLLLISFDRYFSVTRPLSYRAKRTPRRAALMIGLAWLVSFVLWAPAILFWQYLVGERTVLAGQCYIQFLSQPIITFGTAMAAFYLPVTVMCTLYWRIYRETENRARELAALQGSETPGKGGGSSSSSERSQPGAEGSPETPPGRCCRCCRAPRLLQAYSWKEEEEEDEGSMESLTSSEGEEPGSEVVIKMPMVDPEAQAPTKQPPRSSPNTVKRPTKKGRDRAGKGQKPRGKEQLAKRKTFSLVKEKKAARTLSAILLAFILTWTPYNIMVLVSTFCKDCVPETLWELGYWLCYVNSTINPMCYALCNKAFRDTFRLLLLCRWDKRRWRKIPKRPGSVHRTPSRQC
Outline: (§1)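 Steps: seed M1- or M4-CHO cells 18-24 hrs ahead; load calcium dye with 1 mM probenecid; add test compound (0.5% DMSO final), either alone for agonism or 15 min before EC80 carbachol for inhibition; record FLIPR fluorescence for 60 sec.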

M4 muscarinic receptor = molecular target: T2, M4 muscarinic receptor (Homo sapiens, UniProt P08173); test: Functional mobilization of intracellular calcium (FLIPR) in M4-CHO cells; assay type: cell-based; details: for M4 Activity: modulating M4 receptor
T2 construct: expressed in transfected cells; host or cells: CHO (M4-CHO)
T2 sequence (P08173 1-479): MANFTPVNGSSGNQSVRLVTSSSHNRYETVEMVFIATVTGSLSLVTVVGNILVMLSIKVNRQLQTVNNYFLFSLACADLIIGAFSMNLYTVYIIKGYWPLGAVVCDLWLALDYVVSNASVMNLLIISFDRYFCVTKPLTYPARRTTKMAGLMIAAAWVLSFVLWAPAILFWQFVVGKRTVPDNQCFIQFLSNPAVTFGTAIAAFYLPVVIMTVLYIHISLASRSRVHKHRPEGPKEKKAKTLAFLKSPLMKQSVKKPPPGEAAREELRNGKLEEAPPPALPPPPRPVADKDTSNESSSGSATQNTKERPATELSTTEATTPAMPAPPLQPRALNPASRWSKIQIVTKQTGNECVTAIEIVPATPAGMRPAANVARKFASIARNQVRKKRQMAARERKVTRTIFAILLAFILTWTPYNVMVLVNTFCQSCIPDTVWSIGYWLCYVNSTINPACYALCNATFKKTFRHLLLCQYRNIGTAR
Outline: as §1

[1] = M1-CHO cells, calcium mobilization (FLIPR)
[2] = M1-CHO cells, calcium mobilization (FLIPR), read-out: M1 Efficacy
[3] = M4-CHO cells, calcium mobilization (FLIPR)
[4] = M4-CHO cells, calcium mobilization (FLIPR), read-out: M4 Efficacy
[5] = Table 4, 100% efficacy is the maximum response obtained with the Carbachol control

Compound: CC(=O)N1CC2(CCN(C3CCN(C(=O)O[C@H]4CCOC4)CC3)CC2)c2cc(F)ccc21 [compound 418]
- EC50 (M1 muscarinic receptor; [1]): > 1000 nM
- Emax (M1 muscarinic receptor; [2]): < 65%
- EC50 (M4 muscarinic receptor; [3]): > 1000 nM
- Emax (M4 muscarinic receptor; [4]): < 65%

Compound: COCCOC(=O)N1CCC(CN2CCC3(CC2)CN(C(C)=O)c2ccc(C)cc23)CC1 [compound 419]
- EC50 (M1 muscarinic receptor; [1]): > 1000 nM
- Emax (M1 muscarinic receptor; [2]): < 65%
- EC50 (M4 muscarinic receptor; [3]): > 1000 nM
- Emax (M4 muscarinic receptor; [4]): < 65%

Compound: c1ccc2c(c1)NCC21CCN(C2CC3CCC(C3)C2)CC1 (stereo not drawn) [compound 420]
- EC50 (M1 muscarinic receptor; [1]): 100 to 1000 nM
- Emax (M1 muscarinic receptor; [2]): < 65%
- EC50 (M4 muscarinic receptor; [3]): > 1000 nM
- Emax (M4 muscarinic receptor; [4]): < 65%

Compound: CC(=O)NC1CC2(CCN(C[C@@H]3C[C@H]4C=C[C@H]3C4)CC2)c2ccccc21 (stereo partly drawn) [compound 421]
- EC50 (M1 muscarinic receptor; [1]): > 1000 nM
- M1 Efficacy (M1 muscarinic receptor; [1]): x (efficacy was calculated to be less than 65%)
- EC50 (M4 muscarinic receptor; [3]): > 1000 nM
- M4 Efficacy (M4 muscarinic receptor; [3]): x (efficacy was calculated to be less than 65%)

Compound: COCCOC(=O)N1CC2(CCN(C3CC4CCC(C3)N4C(=O)OC(C)C)CC2)c2cc(F)ccc21 (stereo not drawn) [compound 422]
- EC50 (M1 muscarinic receptor; [1]): < 100 nM
- Emax (M1 muscarinic receptor; [2]): < 65%
- EC50 (M4 muscarinic receptor; [3]): > 1000 nM
- Emax (M4 muscarinic receptor; [4]): < 65%

Compound: COC(=O)N1CCC(CN2CCC3(CC2)CN(C(C)=O)c2ccc(C)cc23)CC1 [compound 423]
- EC50 (M1 muscarinic receptor; [1]): 100 to 1000 nM
- Emax (M1 muscarinic receptor; [2]): < 65%
- EC50 (M4 muscarinic receptor; [3]): > 1000 nM
- Emax (M4 muscarinic receptor; [4]): < 65%

Compound: CC(=O)N1CC2(CCN(C3CCN(C(=O)O[C@@H]4CCOC4)CC3)CC2)c2cc(F)ccc21 [compound 424]
- EC50 (M1 muscarinic receptor; [1]): > 1000 nM
- Emax (M1 muscarinic receptor; [2]): < 65%
- EC50 (M4 muscarinic receptor; [3]): > 1000 nM
- Emax (M4 muscarinic receptor; [4]): < 65%

Compound: CC(=O)N1CC2(CCN(C3CCCC(C(F)(F)F)C3)CC2)c2cc(F)ccc21 (stereo not drawn) [compound 425]
- EC50 (M1 muscarinic receptor; [1]): > 1000 nM
- Emax (M1 muscarinic receptor; [2]): < 65%
- EC50 (M4 muscarinic receptor; [3]): > 1000 nM
- Emax (M4 muscarinic receptor; [4]): < 65%

Compound: CCOC(=O)N1CCC(N2CCC3(CC2)CN(C(C)=O)c2ccc(C4=CCCC4)cc23)CC1 [compound 426]
- EC50 (M1 muscarinic receptor; [1]): > 1000 nM
- Emax (M1 muscarinic receptor; [2]): < 65%
- EC50 (M4 muscarinic receptor; [3]): > 1000 nM
- Emax (M4 muscarinic receptor; [4]): < 65%

Compound: CCOC(=O)N1CCC(N2CCC3(CC2)CN(C(=O)OCC)c2ccc(F)cc23)CC1 [compound 427]
- EC50 (M1 muscarinic receptor; [1]): 100 to 1000 nM
- Emax (M1 muscarinic receptor; [2]): < 65%
- EC50 (M4 muscarinic receptor; [3]): > 1000 nM
- Emax (M4 muscarinic receptor; [4]): < 65%

Compound: CCOC(=O)N1CCC(N2CCC3(CC2)CN(C(=O)O[C@H]2CCOC2)c2ccc(F)cc23)CC1 [compound 428]
- EC50 (M1 muscarinic receptor; [1]): 100 to 1000 nM
- Emax (M1 muscarinic receptor; [2]): < 65%
- EC50 (M4 muscarinic receptor; [3]): > 1000 nM
- Emax (M4 muscarinic receptor; [4]): < 65%

Compound: Fc1ccc2c(c1)C1(CCN(C[C@@H]3C[C@H]4CC[C@H]3O4)CC1)CN2 [compound 429]
- EC50 (M1 muscarinic receptor; [1]): 100 to 1000 nM
- Emax (M1 muscarinic receptor; [2]): < 65%
- EC50 (M4 muscarinic receptor; [3]): > 1000 nM
- Emax (M4 muscarinic receptor; [4]): < 65%

Compound: CCOC(=O)N1CCC(N2CCC3(CC2)C[C@@H](NC(C)=O)c2ccccc23)CC1 [compound 430]
- EC50 (M1 muscarinic receptor; [1]): 100 to 1000 nM
- Emax (M1 muscarinic receptor; [2]): < 65%
- EC50 (M4 muscarinic receptor; [3]): > 1000 nM
- Emax (M4 muscarinic receptor; [4]): < 65%

Compound: CCOC(=O)N1CCC(N2CCC3(CC2)CN(C(C)=O)c2c(F)ccc(F)c23)CC1 [compound 431]
- Emax (M1 muscarinic receptor; [5]): 25 to 100%
- M1 Activity (M1 muscarinic receptor; Table 4): xx (activity was measured to be between 2.0 μM and 5.0 μM)
- Emax (M4 muscarinic receptor; [5]): 25 to 100%
- M4 Activity (M4 muscarinic receptor; Table 4): xx (activity was measured to be between 2.0 μM and 5.0 μM)

Compound: CC(C)C(=O)N[C@@H]1CC2(CCN(C[C@H]3C[C@H]4CC[C@H]3C4)CC2)c2ccccc21 [compound 432]
- Emax (M1 muscarinic receptor; [5]): < 25%
- M1 Activity (M1 muscarinic receptor; Table 4): x (activity was measured to be greater than 5.0 μM)
- Emax (M4 muscarinic receptor; [5]): < 25%
- M4 Activity (M4 muscarinic receptor; Table 4): x (activity was measured to be greater than 5.0 μM)

Compound: CCOC(=O)N1CCC(N2CCC3(CC2)CN(C(=O)Nc2ccccc2)c2ccccc23)CC1 [compound 433]
- Emax (M1 muscarinic receptor; [5]): > 100%
- M1 Activity (M1 muscarinic receptor; Table 4): xxx (activity was measured to be less than 2.0 μM)
- Emax (M4 muscarinic receptor; [5]): 25 to 100%
- M4 Activity (M4 muscarinic receptor; Table 4): xxx (activity was measured to be less than 2.0 μM)

Compound: CCOC(=O)N1CCC(N2CCC3(CC2)CN(C(C)=O)c2c(-c4ccc(OC)cc4)cccc23)CC1 [compound 434]
- Emax (M1 muscarinic receptor; [5]): 25 to 100%
- M1 Activity (M1 muscarinic receptor; Table 4): x (activity was measured to be greater than 5.0 μM)
- Emax (M4 muscarinic receptor; [5]): 25 to 100%
- M4 Activity (M4 muscarinic receptor; Table 4): xxx (activity was measured to be less than 2.0 μM)

Compound: CN(C)C(=O)N1CC2(CCN(C3CCN(C(=O)c4ccco4)CC3)CC2)c2cc(F)ccc21 [compound 435]
- Emax (M1 muscarinic receptor; [5]): 25 to 100%
- M1 Activity (M1 muscarinic receptor; Table 4): xxx (activity was measured to be less than 2.0 μM)
- Emax (M4 muscarinic receptor; [5]): 25 to 100%
- M4 Activity (M4 muscarinic receptor; Table 4): xxx (activity was measured to be less than 2.0 μM)

— patent US7786141B2 (Vertex Pharmaceuticals Incorporated, priority 2004, dated 2010)
